# Test system: CD8^+ T cells in PBMCs from convalescent COVID-19 patients
# Type: cell-based, human
sequence,measurement,value
YLQPSTFLL [S^269–277R273S],HLA-A2^S269–277+CD8+ T cell cross-reactivity between WT S^269–277 and variant peptide,no HLA-A2^S269–277+CD8^+ T cell cross-reactivity
